Like-named read-outs stand apart in the source and are kept apart here.
Legend:
[1] = tested on: phospho-Tau (Ser199) in SH-SY5Y cells; experiment: Tau phosphorylation assay (phospho-Tau Ser199 ELISA); type: cell-based, human; conditions: Homo sapiens
Protocol: Tau Phosphorylation and Total Tau Assay
SH-SY5Y cells were maintained in DMEM supplemented with 10% heat-inactivated FBS and 1% penicillin-streptomycin (Invitrogen) unless otherwise stated. ELISA kits for phospho-Tau (Ser199) and total Tau detection were purchased from Invitrogen (KHB0041, and KHB7041 respectively). Briefly, SH-SY5Y cells were seeded at 50,000 cells/200 μL/well in 96 well plates and after overnight incubation, treated with various doses of chemical compounds at 0.2 μL/well. The next day cells were washed with PBS twice before being lysed in 100 μL Lysis buffer/well. 50 μL of cell lysate of each sample was transferred to an ELISA vial coated with the capture antibody, and the mixture was incubated at room temperature for 2 hours, before the supernatant was aspired, and each vial washed four times. 100 μL of detection antibody was then added to each well, incubated for 1 hour, and then washed four times. […] Data were scaled using the positive and neutral controls and fitted for IC50.
A standard protocol using an immunoassay kit to quantify total Tau protein and phospho-Tau (Ser199) protein in SH-SY5Y human neuroblastoma cells was employed. Human Tau (Total) ELISA kit (#KHB0041) and human phosphor-Tau (Ser199) ELISA kit were purchased from Invitrogen (#KHB7041)
50,000 cells were seeded in 200 μl per well in cell culture media (250,000 cells/ml). Cells were incubated overnight @37° C. Cells were induced with appropriate doses of inhibitors and incubated for approximately 24 hrs @37° C. Cell lysates were harvested by washing cells once with cold PBS and adding 100 μl cold lysis buffer and pipette up and down vigorously. Lysate was transferred to 96 well PCR plate and centrifuged at 4,000 rpm for 20 minutes at 4° C.
Well strips were warmed and inserted into the frame. 100μ of standard diluent buffer were loaded into ZERO wells, and 100 ul of each standard concentrations (both total Tau and pTau) were loaded into wells in duplicate. Samples were loaded to each well that would be analyzed for total Tau, 85 μl standard diluent buffer and 15 μl cell lysate were added. To each well that will be analyzed for pTau (Ser199) 50 μl standard diluent buffer+50 μl cell lysate were added. Plates were tapped gently on the side to mix. Certain wells were left empty for chromogen blank. Plates were covered and incubated for 2 hours at room temperature. Wells were aspirated 4 times (400 μl diluted wash buffer, left for 30 seconds, aspirated all wells; alternatively used automated plate washer and programmed in a 30 second hold between each cycle). 100 μl of detection antibody solution were added to each well except chromogen blanks. Anti-total Tau was added to wells being analyzed for total Tau, anti-pTau (Ser199) was added to wells being analyzed for pTau (Ser199), and plates were tapped gently on the side to mix. Plates were covered and incubated for 1 hour at room temperature, then wells were aspirated and washed 4 times as described above. 100 μl of anti-rabbit IgG HRP working solution (prepared ahead) were added to each well except chromogen blanks, and plates were covered and incubated for 30 minutes at room temperature, then wells were aspirated and washed 4 times as described above. 100 μl of stabilized chromogen were added to each well (the liquid turned blue). Plates were incubates for 30 minutes at room temperature in the dark, then 100 μl of stop solution were added to each well, and plates were tapped gently on the side to mix. Absorbance of each well was read at 450 nm (within 2 hours of adding stop solution).

[2] = tested on: β-catenin nuclear translocation in U2-OS cells; experiment: β-Catenin nuclear localization assay; type: cell-based; conditions: Homo sapiens, U2OS, read-out: beta-Catenin translocation EC50
Protocol: β-Catenin Nuclear Localization Assay
U2-OS cells stably expressing two complimentary β-galactosidase fragments (one part on β-Catenin and the other constitutively expressed in the cell nucleus) were maintained in DMEM F12 supplemented with 10% FBS. When β-catenin translocates to the nucleus, the complimentary fragments form a complete β-galactosidase, the amount of which is then quantified by β-galactosidase activity (DiscoveRx). Cells were seeded in a 384-well CulturPlate (Perkin Elmer, Boston, Mass.) with 10,000 per well in 20 μL DMEM F12 containing 10% FCS, 100 U/ml penicillin and 100 μg/mL streptomycin. After overnight incubation at 37° C., cells were stimulated with 100 nL test compound/well and then returned to the incubator for 6 h. Cells were disrupted using 12 μL substrate-containing lysis buffer from the PathHunter Detection Kit in the formulation specified by the supplier (DiscoveRx). Plates were incubated in the dark for 1 h at room temperature before measurement of β-galactosidase activity (luminescence) on an EnVision plate reader (PerkinElmer, Waltham, Mass.).

panel of 311 kinases = experiment: Single point kinome-wide profile (Carna Biosciences); type: biochemical; conditions: for number of kinases inhibited greater than 50% at 10 μM: panel of 311 kinases
Protocol: (§1) Briefly, a selection of compounds was screened against a panel of kinases at a single concentration of 10 μM. […] This was completed utilizing one of two assays depending on the kinase being examined.
(§2) Test compounds were dissolved in and diluted with dimethylsulfoxide (DMSO) to generate a 100× sample solution. These were then diluted to 4× sample solutions in assay buffer to make the final test compound solutions. Reference compounds for assay control were prepared similarly.
(§3) A solution of IMAP binding reagent (IMAP Screening Express kit; Molecular Devices) (60 μL) was added to each well and incubated for 30 minutes.
(§4) A solution of termination buffer (QuickScout Screening assist MSA; Carna Biosciences) (60 μL) was added to each well. The entire reaction mixture was then applied to a LabChip3000 system (Caliper Life Science) and the product and substrate peptide peaks were separated and quantified.

BRAF = BRAF (Homo sapiens (Human), UniProt P15056); experiment: Single point inhibition at 10 μM (Carna), BRAF; type: biochemical
Protocol: as §1, §2, §3, §4

CDK4 = CDK4 (Homo sapiens (Human), UniProt P11802); experiment: Single point inhibition at 10 μM (Carna), CDK4; type: biochemical
Protocol: as §1, §2, §3, §4

CDK5 = CDK5 (Homo sapiens (Human), UniProt Q00535); experiment: Single point inhibition at 10 μM (Carna), CDK5; type: biochemical
Protocol: (§5) Single Point Inhibitory Analysis of Selected Compounds (Carna Biosciences)
as §1, §2, §3, §4

CDK9 = CDK9 (Homo sapiens (Human), UniProt P50750); experiment: Single point inhibition at 10 μM (Carna), CDK9; type: biochemical
Protocol: as §5, §1, §2, §3, §4

CK1g1 = CK1g1 (Homo sapiens (Human), UniProt Q9HCP0); experiment: Single point inhibition at 10 μM (Carna), CK1g1; type: biochemical
Protocol: as §1, §2, §3, §4

CK1g3 = CK1g3 (Homo sapiens (Human), UniProt Q9Y6M4); experiment: Single point inhibition at 10 μM (Carna), CK1g3; type: biochemical
Protocol: as §1, §2, §3, §4

DYKR1B = DYKR1B (Homo sapiens (Human), UniProt Q9Y463); experiment: Single point inhibition at 10 μM (Carna), DYKR1B; type: biochemical
Protocol: as §1, §2, §3, §4

Erk5 = Erk5 (Homo sapiens (Human), UniProt Q13164); experiment: Single point inhibition at 10 μM (Carna), Erk5; type: biochemical
Protocol: as §5, §1, §2, §3, §4

HIPK4 = HIPK4 (Homo sapiens (Human), UniProt Q8NE63); experiment: Single point inhibition at 10 μM (Carna), HIPK4; type: biochemical
Protocol: as §5, §1, §2, §3, §4

LIMK1 = LIMK1 (Homo sapiens (Human), UniProt P53667); experiment: Single point inhibition at 10 μM (Carna), LIMK1; type: biochemical
Protocol: as §1, §2, §3, §4

MAP2K6 = MAP2K6 (Homo sapiens (Human), UniProt P52564); experiment: Single point inhibition at 10 μM (Carna), MAP2K6; type: biochemical
Protocol: as §5, §1, §2, §3, §4

MELK = MELK (Homo sapiens (Human), UniProt Q14680); experiment: Single point inhibition at 10 μM (Carna), MELK; type: biochemical
Protocol: as §5, §1, §2, §3, §4

MLK3 = MLK3 (Homo sapiens (Human), UniProt Q16584); experiment: Single point inhibition at 10 μM (Carna), MLK3; type: biochemical
Protocol: as §5, §1, §2, §3, §4

PKR = PKR (Homo sapiens (Human), UniProt P19525); experiment: Single point inhibition at 10 μM (Carna), PKR; type: biochemical
Protocol: as §5, §1, §2, §3, §4

PLK1 = PLK1 (Homo sapiens (Human), UniProt P53350); experiment: Single point inhibition at 10 μM (Carna), PLK1; type: biochemical
Protocol: as §5, §1, §2, §3, §4

RSK3 = RSK3 (Homo sapiens (Human), UniProt Q15349); experiment: Single point inhibition at 10 μM (Carna), RSK3; type: biochemical
Protocol: as §5, §1, §2, §3, §4

PBS stability = type: physicochemical; conditions: 48 hours of incubation, acetonitrile recovery
Protocol: Stability was determined in the presence of PBS pH 7.4 with 0.1% DMSO. Each compound was prepared in duplicate on six separate plates and allowed to equilibrate at room temperature with a 250 rpm orbital shake for 48 hours. One plate was removed at each time point (0, 2, 4, 8, 24, and 48 hours). […] Additionally, to the remaining material at each time point, acetonitrile was added to force dissolution of compound (to test for recovery of compound). An aliquot of this was also analyzed by UPLC-MS.

GSH stability = type: in vitro ADME; conditions: glutathione, 48 hours
Protocol: Stability was determined in the presence of PBS pH […] and 50 μM glutathione with 0.1% DMSO. Each compound was prepared in duplicate on six separate plates and allowed to equilibrate at room temperature with a 250 rpm orbital shake for 48 hours. One plate was removed at each time point (0, 2, 4, 8, 24, and 48 hours). […] Additionally, to the remaining material at each time point, acetonitrile was added to force dissolution of compound (to test for recovery of compound). An aliquot of this was also analyzed by UPLC-MS.

[3] = tested on: TCF/LEF reporter in HEK293-pBARL cells; conditions: read-out: TCF/LEF EC50
Protocol: (§6) HEK293-pBARL cells were derived from HEK293 cells and they stably expressed a firefly-luciferase reporter gene driven by a promoter containing 12 copies of TCF/LEF binding sequences. These cells were maintained in DMEM and supplemented with 10% FBS and 1% penicillin-streptomycin (Invitrogen). Reporter gene assays were conducted in anti-biotic free media. […] These cells also contained a renilla-luciferase reporter gene driven by the ubiquitous EF1α promoter as a control. HEK293-pBarl reporter cell lines were seeded into 384-well culture plates (Corning) at 6000 cells/well. 24 hours after plating, cells were treated overnight with relevant compounds and assayed using DualGlo assay kit (Promega). Luminescent intensities were read by EnVision (PerkinElmer, Waltham, Mass.). Firefly luciferase intensity is normalized by renilla luciferase intensity.
(§7) Cells were cultured in 384 well plates to appropriate density (40 μl total plating volume). 24 hours after plating, cells were treated with 100 nl compounds. 24 hours after incubation with compounds (48 hours after plating), assay reagents were prepared by mixing Luciferase Assay solution with Luciferase substrate and Stop & Glo solution to Stop & Glo substrate (extra reagents can be aliquoted and frozen for future use and are stable for at least one freeze/thaw cycle). […] The plate was spun down and 10 minutes were allowed for signal stabilization. Luciferase signal on the Perkin Elmer EnVision using the following parameters: Distance between plate & detector (mm)=0.2; Measurement time(s)=0.1; Glow (CT2) correction factor=0. Once the initial data is secure, a volume of Stop & Glo was added equal to each well equal to the volume of Luciferase reagent added above (If 10 μl Luciferase Reagent was added, 10 μl Stop & Glo was also added). The plate was spun down and 10 minutes were allowed for signal stabilization. The plate was read on the EnVision using the same parameters detailed above.

[4] = M (mouse)
[5] = tested on: TCF/LEF reporter in HEK293-pBARL cells; experiment: cells; conditions: Homo sapiens
Protocol: as §6, §7

GSK3α [6] = target: T1, GSK3α (Homo sapiens (Human), UniProt P49840); experiment: biochemical; conditions: read-out: % Inhibition at 10 μM, GSK3α
Protocol: as §1, §2, §3, §4

GSK3β [7] = target: T2, GSK3β (Homo sapiens (Human), UniProt P49841); experiment: biochemical; conditions: read-out: % Inhibition at 10 μM, GSK3β
Protocol: as §1, §2, §3, §4

[8] = tested on: amphetamine-induced hyperactivity; experiment: Amphetamine-induced hyperactivity (AIH) in vivo; conditions: mice, intracerebroventricular, vs vehicle
[9] = tested on: human iPSC-NPCs with TCF/LEF-luciferase reporter; experiment: Neurogenesis assay; type: cell-based; conditions: 24-h treatment
Excerpt: See, e.g., Zhao et al., J Biomol Screen. 2012 October; 17(9):1252-63.

GSK3 = conditions: read-out: GSK3 IC50 of lithium; cited from earlier work
CDK2/CycA2 = CDK2/CycA2 (Homo sapiens (Human), UniProt P24941); experiment: Single point inhibition at 10 μM (Carna), CDK2/CycA2; type: biochemical
Protocol: as §1, §2, §3, §4

CDK2/CycE1 = CDK2/CycE1 (Homo sapiens (Human), UniProt P24941); experiment: Single point inhibition at 10 μM (Carna), CDK2/CycE1; type: biochemical
Protocol: as §1, §2, §3, §4

CDK2 = CDK2 (Homo sapiens (Human), UniProt P24941); experiment: Single point inhibition at 10 μM (kinase screen), CDK2; type: biochemical
Protocol: as §1, §2, §3, §4

CLK1 = CLK1 (Homo sapiens (Human), UniProt P49759); experiment: Single point inhibition at 10 μM (kinase screen), CLK1; type: biochemical
Protocol: as §1, §2, §3, §4

GSK3β [10] = target: T2, GSK3β
Protocol: Human GSK3β as a GST fusion expressed in baculoviral system was purchased from BPS Bioscience (San Diego, Calif.). […] Reactions were incubated at room temperature for 60 minutes. 2.5 μL/well of ADP-Glo (Promega, V9103) was added with BioRAPTR, and incubated at room temperature for 40 minutes followed by addition of 5 μL/well of ADP-Glo detection reagent (Promega, V9103) with Combi nL (Thermo, Waltham, Mass.) and incubation at room temperature for 30 minutes. The plates were read on a ViewLux (PerkinElmer, Waltham, Mass.) for luminescence. Data were scaled using the positive and neutral controls and fitted for IC50 as described below.
ADP Glo Assay Protocol (10 μM ATP) in 384-Well Format
100 nL/well compounds were pinned. […] Incubated at room temperature for 60 minutes. Added 20 μL/well of ADP-glo (Promega, V9103) with Combi, and incubated at room temperature for 40 minutes. Added 40 μL/well of ADP-glo (Promega, V9103) with Combi, incubated at room temperature for 30 minutes. Read on Envision for luminescence.

GSK3α [11] = target: T1, GSK3α
Protocol: GSK3β Microfluidic Mobility-Shift Assay
(§8) Reactions were terminated by the addition of 10 mM EDTA. Substrate and product were separated electrophoretically and fluorescence intensity of the substrate and product was determined by Labchip EZ Reader II (Caliper Life Sciences, MA). The kinase activity was measured as percent conversion. The reactions were performed in duplicate for each sample. […] The results were analyzed by Genedata Assay Analyzer. The percent inhibition was plotted against the compound concentration and the IC50 value was determined from the logistic dose-response curve fitting.

GSK3β [12] = target: T2, GSK3β; remark: listed apart in the source
Protocol: GSK3β Microfluidic Mobility-Shift Assay
as §8

T1 sequence (P49840 whole entry): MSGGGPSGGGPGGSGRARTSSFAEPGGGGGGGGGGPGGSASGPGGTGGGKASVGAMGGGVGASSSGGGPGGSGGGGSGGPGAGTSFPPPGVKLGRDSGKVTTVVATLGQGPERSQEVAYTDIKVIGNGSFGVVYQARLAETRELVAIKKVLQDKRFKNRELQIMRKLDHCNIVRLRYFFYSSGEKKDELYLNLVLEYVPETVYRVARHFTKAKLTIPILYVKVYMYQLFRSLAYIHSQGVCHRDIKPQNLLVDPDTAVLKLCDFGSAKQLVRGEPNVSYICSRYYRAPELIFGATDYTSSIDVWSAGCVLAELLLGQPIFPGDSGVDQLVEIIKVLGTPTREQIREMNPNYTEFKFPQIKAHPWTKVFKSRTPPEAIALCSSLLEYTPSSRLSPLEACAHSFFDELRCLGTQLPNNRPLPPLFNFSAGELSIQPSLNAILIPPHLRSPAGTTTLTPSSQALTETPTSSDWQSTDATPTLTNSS
T2 sequence (P49841 whole entry): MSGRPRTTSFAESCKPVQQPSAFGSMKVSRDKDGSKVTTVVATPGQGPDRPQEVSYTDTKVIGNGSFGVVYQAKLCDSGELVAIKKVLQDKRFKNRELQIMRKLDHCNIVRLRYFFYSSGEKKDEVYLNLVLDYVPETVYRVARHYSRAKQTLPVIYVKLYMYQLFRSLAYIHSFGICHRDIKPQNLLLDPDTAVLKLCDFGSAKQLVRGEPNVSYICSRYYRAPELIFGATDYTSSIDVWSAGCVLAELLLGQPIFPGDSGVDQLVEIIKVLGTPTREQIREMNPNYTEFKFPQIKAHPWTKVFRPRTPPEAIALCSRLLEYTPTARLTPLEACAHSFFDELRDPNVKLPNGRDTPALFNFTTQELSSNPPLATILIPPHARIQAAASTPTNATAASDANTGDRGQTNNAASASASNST
Chain of RSK3 (Q15349 whole entry): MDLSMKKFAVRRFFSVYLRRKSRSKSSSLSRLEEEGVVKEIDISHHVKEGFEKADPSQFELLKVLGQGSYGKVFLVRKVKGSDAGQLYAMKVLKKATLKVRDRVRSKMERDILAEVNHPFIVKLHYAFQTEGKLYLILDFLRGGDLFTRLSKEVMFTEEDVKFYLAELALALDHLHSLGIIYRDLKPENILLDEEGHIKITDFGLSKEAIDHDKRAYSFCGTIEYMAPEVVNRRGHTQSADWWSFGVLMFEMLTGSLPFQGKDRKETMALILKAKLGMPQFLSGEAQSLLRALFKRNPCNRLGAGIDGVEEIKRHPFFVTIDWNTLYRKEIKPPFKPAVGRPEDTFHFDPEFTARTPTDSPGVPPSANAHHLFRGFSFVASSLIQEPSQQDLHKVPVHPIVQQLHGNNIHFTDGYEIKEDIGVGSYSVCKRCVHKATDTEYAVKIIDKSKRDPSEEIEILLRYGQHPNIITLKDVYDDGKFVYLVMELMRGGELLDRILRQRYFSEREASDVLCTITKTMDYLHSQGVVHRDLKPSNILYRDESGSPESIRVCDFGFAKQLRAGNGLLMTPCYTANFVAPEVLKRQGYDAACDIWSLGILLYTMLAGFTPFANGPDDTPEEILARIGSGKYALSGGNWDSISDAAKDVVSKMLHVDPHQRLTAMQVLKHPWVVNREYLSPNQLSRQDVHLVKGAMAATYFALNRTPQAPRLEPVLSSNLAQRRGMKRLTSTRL
Chain of CK1g3 (Q9Y6M4 whole entry): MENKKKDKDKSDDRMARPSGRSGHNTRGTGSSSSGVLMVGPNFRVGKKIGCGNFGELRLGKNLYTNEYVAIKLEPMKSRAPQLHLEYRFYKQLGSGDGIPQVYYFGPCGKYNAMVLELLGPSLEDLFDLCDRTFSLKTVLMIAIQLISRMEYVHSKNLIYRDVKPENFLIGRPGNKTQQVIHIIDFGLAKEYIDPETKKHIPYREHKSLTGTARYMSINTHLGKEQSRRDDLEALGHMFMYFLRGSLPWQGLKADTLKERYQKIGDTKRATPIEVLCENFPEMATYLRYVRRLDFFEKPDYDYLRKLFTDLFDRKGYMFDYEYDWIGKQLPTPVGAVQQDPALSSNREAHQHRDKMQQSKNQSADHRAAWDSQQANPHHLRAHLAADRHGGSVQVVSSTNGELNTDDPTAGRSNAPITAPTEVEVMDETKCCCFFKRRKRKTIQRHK
Chain of Erk5 (Q13164 whole entry): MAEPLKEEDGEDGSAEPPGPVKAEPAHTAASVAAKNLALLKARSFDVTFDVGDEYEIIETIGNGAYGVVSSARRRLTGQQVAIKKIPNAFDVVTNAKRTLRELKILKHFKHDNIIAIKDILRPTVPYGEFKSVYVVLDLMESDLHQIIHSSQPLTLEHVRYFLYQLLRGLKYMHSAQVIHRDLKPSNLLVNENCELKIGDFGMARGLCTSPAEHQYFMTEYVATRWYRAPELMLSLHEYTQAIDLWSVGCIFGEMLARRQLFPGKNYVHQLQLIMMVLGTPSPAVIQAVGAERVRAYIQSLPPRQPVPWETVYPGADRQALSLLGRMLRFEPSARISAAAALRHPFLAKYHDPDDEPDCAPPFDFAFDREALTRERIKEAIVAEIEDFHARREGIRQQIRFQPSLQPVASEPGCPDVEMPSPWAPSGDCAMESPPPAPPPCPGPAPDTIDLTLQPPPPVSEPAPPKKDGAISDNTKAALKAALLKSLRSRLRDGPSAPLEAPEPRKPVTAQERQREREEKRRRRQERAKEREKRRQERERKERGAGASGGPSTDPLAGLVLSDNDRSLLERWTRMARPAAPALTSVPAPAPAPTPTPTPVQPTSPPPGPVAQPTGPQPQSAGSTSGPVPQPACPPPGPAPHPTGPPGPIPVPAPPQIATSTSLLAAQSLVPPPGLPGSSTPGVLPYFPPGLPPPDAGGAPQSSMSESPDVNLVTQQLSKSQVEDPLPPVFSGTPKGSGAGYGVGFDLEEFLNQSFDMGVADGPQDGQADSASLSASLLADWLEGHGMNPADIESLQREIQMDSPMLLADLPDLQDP
Chain of MELK (Q14680 whole entry): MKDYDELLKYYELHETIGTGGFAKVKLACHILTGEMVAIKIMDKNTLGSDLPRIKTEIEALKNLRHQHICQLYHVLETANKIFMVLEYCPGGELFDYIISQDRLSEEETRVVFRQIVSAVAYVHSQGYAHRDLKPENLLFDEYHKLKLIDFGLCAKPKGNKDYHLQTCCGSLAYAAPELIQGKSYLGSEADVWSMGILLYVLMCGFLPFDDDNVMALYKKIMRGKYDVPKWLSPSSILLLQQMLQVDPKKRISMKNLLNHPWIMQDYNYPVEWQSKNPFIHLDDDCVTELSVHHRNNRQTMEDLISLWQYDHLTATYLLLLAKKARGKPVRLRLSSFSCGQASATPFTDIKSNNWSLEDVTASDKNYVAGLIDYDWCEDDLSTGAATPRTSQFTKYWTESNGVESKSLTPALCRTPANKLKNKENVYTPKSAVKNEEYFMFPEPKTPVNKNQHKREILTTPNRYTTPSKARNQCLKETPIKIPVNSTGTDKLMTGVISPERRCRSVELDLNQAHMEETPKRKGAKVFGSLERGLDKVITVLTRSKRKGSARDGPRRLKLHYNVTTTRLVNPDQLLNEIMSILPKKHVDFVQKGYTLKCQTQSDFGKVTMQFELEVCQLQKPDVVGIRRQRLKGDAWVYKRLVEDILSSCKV
Chain of DYKR1B (Q9Y463 whole entry): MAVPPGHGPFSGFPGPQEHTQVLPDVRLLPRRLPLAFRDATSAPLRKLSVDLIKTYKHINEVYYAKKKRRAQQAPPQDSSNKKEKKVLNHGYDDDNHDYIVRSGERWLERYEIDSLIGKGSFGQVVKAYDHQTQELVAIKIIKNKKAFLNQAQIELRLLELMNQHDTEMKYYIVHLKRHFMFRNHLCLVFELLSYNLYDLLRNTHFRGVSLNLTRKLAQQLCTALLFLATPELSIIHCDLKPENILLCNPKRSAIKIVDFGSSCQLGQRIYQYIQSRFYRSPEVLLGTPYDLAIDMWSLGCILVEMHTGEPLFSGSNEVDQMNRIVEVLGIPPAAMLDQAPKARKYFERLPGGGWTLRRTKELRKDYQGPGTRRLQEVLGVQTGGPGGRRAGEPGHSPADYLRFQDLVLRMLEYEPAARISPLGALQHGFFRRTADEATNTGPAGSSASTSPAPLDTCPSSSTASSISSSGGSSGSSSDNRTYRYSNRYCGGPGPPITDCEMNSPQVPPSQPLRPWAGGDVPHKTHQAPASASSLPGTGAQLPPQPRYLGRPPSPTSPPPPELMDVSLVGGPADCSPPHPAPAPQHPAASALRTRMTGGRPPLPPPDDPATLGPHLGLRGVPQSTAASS
Chain of BRAF (P15056 whole entry): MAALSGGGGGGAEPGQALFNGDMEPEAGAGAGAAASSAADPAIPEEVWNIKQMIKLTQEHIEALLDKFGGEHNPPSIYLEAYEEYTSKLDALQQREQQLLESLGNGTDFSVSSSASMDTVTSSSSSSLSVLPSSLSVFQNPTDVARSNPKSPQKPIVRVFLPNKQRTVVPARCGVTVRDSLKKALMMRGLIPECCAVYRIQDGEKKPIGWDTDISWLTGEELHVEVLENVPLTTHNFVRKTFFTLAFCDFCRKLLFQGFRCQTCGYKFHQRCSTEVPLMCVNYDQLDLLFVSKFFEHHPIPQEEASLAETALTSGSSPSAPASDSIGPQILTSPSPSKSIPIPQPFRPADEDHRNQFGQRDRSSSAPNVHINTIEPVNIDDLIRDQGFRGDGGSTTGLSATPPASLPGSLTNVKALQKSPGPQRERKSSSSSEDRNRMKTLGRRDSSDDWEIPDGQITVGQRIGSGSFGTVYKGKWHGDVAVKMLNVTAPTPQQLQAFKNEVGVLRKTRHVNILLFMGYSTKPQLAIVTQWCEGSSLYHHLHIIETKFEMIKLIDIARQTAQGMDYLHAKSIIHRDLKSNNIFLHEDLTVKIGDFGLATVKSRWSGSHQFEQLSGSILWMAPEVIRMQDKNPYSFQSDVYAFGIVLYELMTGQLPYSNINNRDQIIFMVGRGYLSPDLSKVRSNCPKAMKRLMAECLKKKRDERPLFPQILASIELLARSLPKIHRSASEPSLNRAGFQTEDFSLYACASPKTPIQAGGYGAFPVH

COc1ccccc1[C@@H]1C2=C(CC(C)(C)CC2=O)Nc2n[nH]c(C(F)(F)F)c21 [Compound 54, (R)-4-(2-methoxyphenyl)-7,7-dimethyl-3-(trifluoromethyl)-6,7,8,9-tetrahydro-2H-pyrazolo[3,4-b]quinolin-5(4H)-one]
EC50 ([1]; read-out: p-Tau Inhibition ELISA EC50 SH-SY5Y): 1.7 µM
EC50 [2]: 5 µM
% of the kinome (311 kinases) inhibited (panel of 311 kinases; 10 μM, 311 kinases): 2.6%
inhibition at 10 µM (BRAF): 10.8%
inhibition at 10 µM (CDK4): 19%
inhibition at 10 µM (CDK5): 86.7%
inhibition at 10 µM (CDK9): 20.5%
inhibition at 10 µM (CK1g1): 0.5%
inhibition at 10 µM (CK1g3): 3.2%
inhibition at 10 µM (DYKR1B): 52.5%
inhibition at 10 µM (Erk5): 0.6%
inhibition at 10 µM (HIPK4): 3.2%
inhibition at 10 µM (LIMK1): 6.7%
inhibition at 10 µM (MAP2K6): 0.1%
inhibition at 10 µM (MELK): 4.5%
inhibition at 10 µM (MLK3): 18.8%
inhibition at 10 µM (PKR): 0.1%
inhibition at 10 µM (PLK1): 21.3%
inhibition at 10 µM (RSK3): 0.1%
PBS stability, % still present (PBS stability): more than 95%
GSH stability, % remaining (GSH stability): 99%
EC50 [3]: 4.8 µM
Microsomal Stability [4]: M: 0%
EC50 ([5]; HEK293, read-out: TCF/LEF EC50 (μM), HEK293 reporter cells): 5 µM
inhibition at 10 µM (GSK3α [6]): 99.9%
inhibition at 10 µM (GSK3β [7]): 99.9%

COc1ccccc1[C@@H]1C2=C(CC(C)(C)CC2=O)Nc2n[nH]c(C)c21 [Compound 22, 4-(2-methoxyphenyl)-3,7,7-trimethyl-6,7,8,9-tetrahydro-1H-pyrazolo[3,4-b]quinolin-5(4H)-one]
number of kinases inhibited greater than 50% at 10 μM (panel of 311 kinases): 8 kinases
effect on amphetamine-induced hyperactivity, ICV injection [8]: attenuate amphetamine-induced hyperactivity
neurogenesis [9]: promoted neurogenesis

[Li+] [Li^+]
IC50 (GSK3): 2000 µM

Cc1c[nH]c(-c2cnc(NCCNc3ccc(C#N)cn3)nc2-c2ccc(Cl)cc2Cl)n1 [CHIR99021, reference compound]
IC50 ([1]; read-out: Phospho-Tau ELISA in SHSY5Y Cells (IC50)): 0.44 µM
EC50 [2]: 10 µM
number of kinases inhibited greater than 50% at 10 μM (panel of 311 kinases): 21 kinases
inhibition at 10 µM (BRAF): 53.8%
inhibition at 10 µM (CDK2/CycA2): 79.3%
inhibition at 10 µM (CDK2/CycE1): 67.2%
inhibition at 10 µM (CDK4): 65.3%
inhibition at 10 µM (CDK5): > 50%
inhibition at 10 µM (CK1g1): 85.8%
inhibition at 10 µM (CK1g3): 70.5%
inhibition at 10 µM (DYKR1B): 70.5%
inhibition at 10 µM (Erk5): > 50%
inhibition at 10 µM (HIPK4): 55.5%
inhibition at 10 µM (MAP2K6): 65.3%
inhibition at 10 µM (MELK): 53.5%
inhibition at 10 µM (MLK3): 52.7%
inhibition at 10 µM (PKR): 57.1%
inhibition at 10 µM (PLK1): > 50%
inhibition at 10 µM (RSK3): 53.6%
inhibition at 10 µM (CDK2): > 50%
inhibition at 10 µM (CLK1): > 50%
Microsomal Stability [4]: M: 4%
EC50 ([5]; HEK293, read-out: TCF/LEF EC50 (μM)): 6 µM
inhibition at 10 µM (GSK3α [6]): 99.9%
inhibition at 10 µM (GSK3β [7]): 99.9%

CC1(C)CC(=O)C2=C(C1)Nc1n[nH]c(C(F)(F)F)c1[C@@H]2c1c(F)cccc1F [Compound 59]
IC50 (GSK3β [10]): < 0.1 µM
IC50 (GSK3α [11]): 0.101 to 1 µM
IC50 (GSK3β [12]): < 0.1 µM
EC50 [3]: > 25 µM

— patent US10137122B2, “Kinase inhibitors and methods of use thereof” (priority 2012, dated 2018)
